Test [1] deals with Male castrated German Landrace pigs. Nature of the test: In vivo assay: enhancement of swallowing in anesthetized pigs (manometry with pressure probe in the mouth). The following applies: Sus scrofa, anesthetized pig, dose per pig 10 mg, injected in 1 ml vehicle into the oral cavity. Here is the method:
For testing the efficacy of TRPM8 agonists for enhancing swallowing, experiment using the pig model can be conducted according to assay described below. The efficacy can be compared to a vehicle control.
Male castrated German Landrace pigs (weight range of 20 to 35 kg) were used. Anesthesia was induced by injecting 20 ml of a urethane solution (20 g/100 mL dissolved in saline) into an ear vein corresponding to a dose of around […]. Anesthesia was maintained by continuous infusion of 15-20 mL per hour of the urethane solution, which was infused into an epigastric vein, and additionally by infusion of Zoletil and Rompun (500 mg Zoletil is disssovled in 10 ml of Rompun 2%, then diluted 1:10 with saline and 3-5 mL per hour of this diluted solution. Bupivacain 0.5% JENAPHARM@ was injected for additional infiltration anesthesia. Anesthesia was monitored via pulsoximetry (ear) and regular reflex testing for pain. Body temperature was monitored and maintained by an infrared lamp.
Preparation of pigs: Swallowing responses were assessed by manometry with a pressure probe placed into the mouth of the pig. The pressure probe consisted of a plastic tube (diameter 3.3 mm) to which a small balloon was attached. The tube was advanced about 12-14 cm into the mouth related to the snout. The balloon was then inflated with air to yield a pressure of 20-30mbar (vehicle). Ideally a swallowing response with 1 ml of fluid raised this pressure by 20-50mbar which was then referred to as the swallowing pressure (the increment of this pre-set pressure in the inflated balloon after swallowing) to be further enhanced by an effective test drug.
The free end of the tube was connected to a differential pressure transducer MPX Type 399/2 (Hugo Sachs Elektronik-Harvard Apparatus) and a Hugo Sachs Plugsys-amplifier system. The biological signals were recorded by a Hugo Sachs Plugsys-amplifier system and continuously stored on a computer hard disk by an on line data acquisition and analysis system (Hem 4.2 Notocord Systems, Croissy-sur-Seine, France).
A second tube referred to as injection tube was placed dorsally to the manometer tube to enable the administration of the vehicle that induced the baseline swallowing activity, or of this same vehicle containing the test compound.
Induction and assessment of swallowing activity: 0.5h after anesthesia induction 1 ml of a fluid or the vehicle for the test drug was injected into the injection tube placed into the oral cavity. The number of swallows was counted and the highest-pressure increment was registered. Challenges with vehicle were repeated at intervals of 30 min until two consecutive vehicle challenges show an about equal swallowing response. The next challenge was the vehicle loaded with the test drug (otherwise same procedure). The efficacy of a compound to enhance swallowing as shown in Table 7 was expressed as the % increase in pressure and frequency of swallowing after administration of the compound compared to the pressure and frequency recorded for its vehicle administered just before.

Test [2] addresses T1, pig TRPM8 (Sus scrofa, UniProt F1SM15).
T1 construct: expressed in transfected cells; host or cells: CHO (pcDNA5/FRT/TO vector; hygromycin B and blasticidin selection)
The test is described as follows: In vitro pig TRPM8 automated patch-clamp assay (SyncroPatch 384PE, CHO cells). The following applies: CHO cells expressing pig TRPM8, 28° C. The format is cell-based. In short, it runs like this:
(§1)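 Whole-cell automated patch clamp on engineered CHO lines at 28 °C, held at −60 mV, with −80 to +80 mV ramps every 5 s; one compound concentration per well. Peak current minus pre-addition baseline was normalised to no-compound control and Emax, and EC50 was fitted; 200 μM menthol wells served as control.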
In general terms: In patch-clamp work, channel activity is measured electrically.

Test [3] has as its target T1, pig TRPM8. The test is described as follows: In vitro pig TRPM8 fluorescence calcium flux assay (recombinant CHO cells, Fluo4-AM, FDSS6000). The format is cell-based. The following applies: recombinant CHO cells expressing pig TRPM8; menthol-related EC50, normalized to 100 μM menthol. In a few lines: (§2)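 CHO cells stably expressing pig or human TRPM8, loaded with 2 μM Fluo4-AM in HBSS/20 mM HEPES/0.1% BSA/2.5 mM probenecid for 1 h at RT. Intracellular calcium read kinetically for 3 min after compound addition. EC50 from sixteen-point curves, normalized to 100 μM menthol maximal response.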

Test [4] addresses T2, human TRPM8 (Homo sapiens, UniProt Q7Z2W7).
T2 construct: expressed in transfected cells; host or cells: CHO (p658 mammalian expression vector)
Nature of the test: In vitro human TRPM8 automated patch-clamp assay (SyncroPatch 384PE, CHO cells). The format is cell-based. The settings on record: CHO cells expressing human TRPM8, 28° C. In a few lines: as §1

The target of test [5] is T2, human TRPM8. The test is described as follows: In vitro human TRPM8 fluorescence calcium flux assay (recombinant CHO cells, Fluo4-AM, FDSS6000). The format is cell-based. The settings on record: recombinant CHO cells expressing human TRPM8; menthol-related EC50, normalized to 100 μM menthol. In a few lines:
as §2
A general note: A change in cytosolic calcium serves as a functional read-out for many receptors and channels.

Where [6] appears, read: frequency of swallowing compared with vehicle administered just before, read-out: % increase frequence vs vehicle.
[7] abbreviates: swallowing pressure compared with vehicle administered just before, read-out: % increase pressure vs vehicle.

Counter-ions that a name gives are not always drawn. Like-named read-outs stand apart in the source and are kept apart here. Some results are limits rather than exact numbers.

For orientation: EC50 means the concentration giving half of the maximal effect.

T1 sequence (F1SM15 1-1104): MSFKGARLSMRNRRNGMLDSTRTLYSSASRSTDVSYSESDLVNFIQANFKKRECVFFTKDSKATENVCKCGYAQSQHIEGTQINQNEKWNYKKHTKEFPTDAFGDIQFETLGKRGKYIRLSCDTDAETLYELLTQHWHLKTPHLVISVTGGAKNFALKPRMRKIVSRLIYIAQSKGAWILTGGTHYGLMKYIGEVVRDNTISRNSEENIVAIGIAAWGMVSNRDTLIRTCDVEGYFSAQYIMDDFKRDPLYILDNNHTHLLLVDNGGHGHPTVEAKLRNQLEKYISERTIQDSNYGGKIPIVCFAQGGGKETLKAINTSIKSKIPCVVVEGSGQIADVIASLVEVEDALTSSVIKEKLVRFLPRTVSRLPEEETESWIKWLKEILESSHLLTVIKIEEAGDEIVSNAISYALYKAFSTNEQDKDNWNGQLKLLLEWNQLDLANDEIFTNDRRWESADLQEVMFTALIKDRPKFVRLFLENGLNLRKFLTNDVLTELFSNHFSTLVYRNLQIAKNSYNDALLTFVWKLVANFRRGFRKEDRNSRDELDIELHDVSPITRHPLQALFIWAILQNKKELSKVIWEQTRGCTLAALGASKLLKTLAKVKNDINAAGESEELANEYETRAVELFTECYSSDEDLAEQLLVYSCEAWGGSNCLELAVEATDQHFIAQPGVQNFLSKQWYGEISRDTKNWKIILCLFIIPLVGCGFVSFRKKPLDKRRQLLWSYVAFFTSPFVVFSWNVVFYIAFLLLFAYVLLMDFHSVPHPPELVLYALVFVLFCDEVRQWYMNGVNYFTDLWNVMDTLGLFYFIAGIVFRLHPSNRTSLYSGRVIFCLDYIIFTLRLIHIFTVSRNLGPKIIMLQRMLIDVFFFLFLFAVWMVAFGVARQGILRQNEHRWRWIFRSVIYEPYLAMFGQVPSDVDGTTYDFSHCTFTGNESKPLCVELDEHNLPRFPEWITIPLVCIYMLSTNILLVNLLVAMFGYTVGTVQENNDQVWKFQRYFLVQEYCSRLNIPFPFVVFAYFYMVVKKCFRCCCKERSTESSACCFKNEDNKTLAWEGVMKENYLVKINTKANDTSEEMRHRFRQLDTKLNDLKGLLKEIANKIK
T2 sequence (Q7Z2W7 whole entry): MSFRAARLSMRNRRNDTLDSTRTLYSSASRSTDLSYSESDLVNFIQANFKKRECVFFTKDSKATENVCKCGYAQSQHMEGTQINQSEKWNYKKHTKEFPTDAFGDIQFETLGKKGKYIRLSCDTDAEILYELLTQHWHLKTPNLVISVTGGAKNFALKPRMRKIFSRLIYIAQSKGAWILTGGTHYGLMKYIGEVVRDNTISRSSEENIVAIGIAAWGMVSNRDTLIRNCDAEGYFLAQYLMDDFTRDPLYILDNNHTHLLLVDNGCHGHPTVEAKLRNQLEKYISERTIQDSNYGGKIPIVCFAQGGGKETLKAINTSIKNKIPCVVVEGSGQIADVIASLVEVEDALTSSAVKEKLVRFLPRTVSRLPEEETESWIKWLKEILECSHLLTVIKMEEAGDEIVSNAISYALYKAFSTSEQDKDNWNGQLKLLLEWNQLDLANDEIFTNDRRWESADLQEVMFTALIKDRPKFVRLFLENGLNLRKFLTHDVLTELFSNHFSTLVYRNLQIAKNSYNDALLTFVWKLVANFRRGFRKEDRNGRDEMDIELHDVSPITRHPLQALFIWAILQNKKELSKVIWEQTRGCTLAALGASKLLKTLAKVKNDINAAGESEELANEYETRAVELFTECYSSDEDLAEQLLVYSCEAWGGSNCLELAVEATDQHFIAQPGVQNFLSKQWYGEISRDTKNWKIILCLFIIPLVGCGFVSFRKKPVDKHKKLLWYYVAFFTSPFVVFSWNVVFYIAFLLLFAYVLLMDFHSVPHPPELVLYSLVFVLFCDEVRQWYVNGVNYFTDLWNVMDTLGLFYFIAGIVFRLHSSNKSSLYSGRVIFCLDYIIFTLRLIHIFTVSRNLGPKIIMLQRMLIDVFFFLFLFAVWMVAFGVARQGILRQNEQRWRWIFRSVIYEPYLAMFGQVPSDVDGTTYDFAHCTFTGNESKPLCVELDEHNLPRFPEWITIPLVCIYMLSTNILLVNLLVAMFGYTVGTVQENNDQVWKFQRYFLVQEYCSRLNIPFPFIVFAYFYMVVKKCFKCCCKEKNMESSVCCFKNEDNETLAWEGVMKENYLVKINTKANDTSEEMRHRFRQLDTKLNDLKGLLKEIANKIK

Consider `CC(C)[C@@H]1CC[C@@H](C)C[C@@]1(O)C(=O)NCCc1cccc(C(N)=O)c1` [Example 49, 3-(2-((1S,2S,5R)-1-hydroxy-2-isopropyl-5-methylcyclohexane-1-carboxamido)ethyl) benzamide], for which the change in vivo at 10 mg amounted to 300% in test [1] (setting [6]) and 133% in test [1] (setting [7]). The 50% effective concentration (EC50) in test [2] was 1400 nM; in test [3] it was 24.2 nM; in test [4], 1940 nM; in test [5] it was 67 nM.
Consider `CC(C)[C@@H]1CC[C@@H](C)C[C@@]1(O)C(=O)NCCc1cccc(O)c1` [Example 40, (1S,2S,5R)-1-hydroxy-N-(3-hydroxyphenethyl)-2-isopropyl-5-methylcyclohexane-1-carboxamide], for which the change in vivo at 10 mg in test [1] (setting [6]) came out at 62%; in test [1] (setting [7]) it was 393%. Further, the 50% effective concentration (EC50) in test [2] was 1760 nM; in test [3], 1.4 nM; in test [4], 1440 nM; in test [5] it was 2.5 nM.
With `CC(C)[C@@H]1CC[C@@H](C)C[C@@]1(O)C(=O)NCCc1ccccc1OC[C@@H](O)CO` [Example 25, (1S,2S,5R)—N-(2-((S)-2,3-dihydroxypropoxy)phenethyl)-1-hydroxy-2-isopropyl-5-methylcyclohexane-1-carboxamide], the change in vivo at 10 mg was 173% in test [1] (setting [6]) and 168% in test [1] (setting [7]). The half-maximal effective concentration (EC50) in test [2] stood at 3400 nM; in test [3], 32.8 nM; in test [4] it was 2150 nM; in test [5], 14.5 nM.
With `CC(C)[C@@H]1CC[C@@H](C)C[C@@]1(O)C(=O)NCCc1ccccc1OCC(N)=O` [Example 81, (1S,2S,5R)—N-(2-(2-amino-2-oxoethoxy)phenethyl)-1-hydroxy-2-isopropyl-5-methyl cyclohexane-1-carboxamide], the figures for the change in vivo at 10 mg in test [1] (setting [6]) and in test [1] (setting [7]) were 247% and 315%, respectively. Besides, the EC50 was determined as 4250 nM in test [2], 25.2 nM in test [3], 1500 nM in test [4] and 27.7 nM in test [5].
`CC(C)[C@@H]1CC[C@@H](C)C[C@@]1(O)C(=O)NCCc1ccccc1C(=O)OCCN` [Example 13, 2-aminoethyl 2-(2-((1S,2S,5R)-1-hydroxy-2-isopropyl-5-methylcyclohexane-1-carboxamido)ethyl) benzoate hydrochloride]: the change in vivo at 10 mg in test [1] (setting [6]) amounted to 100%; in test [1] (setting [7]) it was 53%. Also, the concentration giving a half-maximal response (EC50) was 782 nM in test [2], 2 nM in test [3], 150 nM in test [4] and 1 nM in test [5].
Turning to `CC(C)[C@@H]1CC[C@@H](C)C[C@@]1(O)C(=O)NC[C@@H](N)c1ccccc1` [Example 50, (1S,2S,5R)—N-((2S)-amino-2-phenylethyl)-1-hydroxy-2-isopropyl-5-methylcyclohexane-1-carboxamide], the change in vivo at 10 mg turned out to be 100% in test [1] (setting [6]) and 63% in test [1] (setting [7]). The EC50 in test [2] turned out to be 71 nM; in test [3] it was 0.4 nM; in test [4], 140 nM; in test [5] it was 0.4 nM.
As for `COC(=O)c1ccc(CCNC(=O)[C@]2(O)C[C@H](C)CC[C@H]2C(C)C)cc1` [Example 108, methyl 4-(2-((1S,2S,5R)-1-hydroxy-2-isopropyl-5-methylcyclohexane-1-carboxamido)ethyl)benzoate], the change in vivo at 10 mg was determined as 114% in test [1] (setting [6]) and 169% in test [1] (setting [7]). Besides, the EC50 in test [2] is greater than 10000 nM; in test [3], 73 nM; in test [5], 211 nM.
For the compound `CC(C)[C@@H]1CC[C@@H](C)C[C@@]1(O)C(=O)NCCc1ccccc1CCO` [Example 52, (1S,2S,5R)-1-hydroxy-N-(2-(2-hydroxyethyl)phenethyl)-2-isopropyl-5-methylcyclohexane-1-carboxamide], the change in vivo at 10 mg was 172% in test [1] (setting [6]) and 202% in test [1] (setting [7]). The concentration for a half-maximal effect (EC50) in test [2] amounted to 864 nM; in test [3], 24.3 nM; in test [4], 1300 nM; in test [5], 26 nM.
Turning to `CC(C)[C@@H]1CC[C@@H](C)C[C@@]1(O)C(=O)NCCc1cccc(C(=O)OCCO)c1` [Example 21, 2-hydroxyethyl 3-(2-((1S,2S,5R)-1-hydroxy-2-isopropyl-5-methylcyclohexane-1-carboxamido)ethyl) benzoate], the change in vivo at 10 mg in test [1] (setting [6]) turned out to be 171%; in test [1] (setting [7]) it was 181%. In addition, the half-maximal effective concentration (EC50) in test [2] was 5290 nM; in test [3], 56.3 nM; in test [4] it was 5500 nM; in test [5], 65.1 nM.
`CC(C)[C@@H]1CC[C@@H](C)C[C@@]1(O)C(=O)NCCc1ccccc1C(=O)OCCO` [Example 22, 2-hydroxyethyl 2-(2-((1S,2S,5R)-1-hydroxy-2-isopropyl-5-methylcyclohexane-1-carboxamido)ethyl) benzoate]: the change in vivo at 10 mg worked out at 500% in test [1] (setting [6]) and 182% in test [1] (setting [7]). The concentration giving a half-maximal response (EC50) came to 3840 nM in test [2], 34.5 nM in test [3], 3600 nM in test [4] and 25.2 nM in test [5].
`CC(C)[C@@H]1CC[C@@H](C)C[C@@]1(O)C(=O)NCC(F)(F)c1ccccc1` [Example 4, (1S,2S,5R)—N-(2,2-difluoro-2-phenylethyl)-1-hydroxy-2-isopropyl-5-methylcyclohexane-1-carboxamide]: the figures for the change in vivo at 10 mg in test [1] (setting [6]) and in test [1] (setting [7]) were 417% and 221%, respectively. The concentration giving a half-maximal response (EC50) in test [2] was 467 nM; in test [3], 1.2 nM; in test [4] it was 541 nM; in test [5] it was 2.8 nM.
On to `CC(C)[C@@H]1CC[C@@H](C)C[C@@]1(O)C(=O)NC[C@@H](O)c1ccccc1` [Example 1, (1S,2S,5R)-1-hydroxy-N—((S)-2-hydroxy-2-phenylethyl)-2-isopropyl-5-methylcyclohexane-1-carboxamide], for which the results for the change in vivo at 10 mg in test [1] (setting [6]) and in test [1] (setting [7]) were 231% and 274%, respectively. For the same compound, the EC50 in test [2] is 733 nM; in test [3], 1.2 nM; in test [4], 810 nM; in test [5] it was 1.7 nM.
Turning to `COC(=O)COc1ccccc1C(O)CNC(=O)[C@]1(O)C[C@H](C)CC[C@H]1C(C)C` (stereo partly drawn) [Example 36, methyl 2-(2-(1-hydroxy-2-((1S,2S,5R)-1-hydroxy-2-isopropyl-5-methylcyclohexane-1-carboxamido)ethyl)phenoxy)acetate], the concentration giving a half-maximal response (EC50) in test [2] came to 3810 nM; in test [3] it was 36 nM; in test [4], 1880 nM; in test [5], 47 nM.
As for `CC(C)[C@@H]1CC[C@@H](C)C[C@@]1(O)C(=O)NCCc1cccc(C#N)c1` [Example 48, (1S,2S,5R)—N-(3-cyanophenethyl)-1-hydroxy-2-isopropyl-5-methylcyclohexane-1-carboxamide], the EC50 in test [2] amounted to 4600 nM; in test [3], 5 nM; in test [4] it was 2630 nM; in test [5], 13.5 nM.
Taken in the same sequence, the figures for `CC(C)[C@@H]1CC[C@@H](C)C[C@@]1(O)C(=O)NC[C@@H](OCC(=O)O)c1ccccc1` [Example 55, 2-((S)-2-((1S,2S,5R)-1-hydroxy-2-isopropyl-5-methylcyclohexane-1-carboxamido)-1-phenylethoxy)acetic acid] were 3550 nM, 54.3 nM, 4470 nM and 102 nM.

For the origin of these results see US20240124408A1 (Sanofi, priority 2020, published 2024).
